In ChEMBL document CHEMBL5042542, “Discovery of Non-Nucleotide Small-Molecule STING Agonists via Chemotype Hybridization” (J Med Chem, 2022):

Assay: in vitro
Conditions: rat, liver microsomes

Question: Which remaining at 10 min, 0.5 µM does the source give for `O=C(O)c1c(O)c(Cl)cc2cc(CNC(=O)c3cnn4cccnc34)oc12` here?
Answer: 88%

Question: Which remaining at 10 min, 0.5 µM does the source give for `Cc1ccc2c(=O)c3cccc(CC(=O)O)c3oc2c1C` [VADIMEZAN] here?
Answer: 100%

Question: Which remaining at 10 min, 0.5 µM does the source give for `O=C(O)c1cccc2cc(CNC(=O)c3cnn4cccnc34)oc12` here?
Answer: 96%

Question: With `O=C(O)c1c(F)ccc2cc(CNC(=O)c3cnn4cccnc34)oc12` as the compound, how does the remaining at 10 min, 0.5 µM read?
Answer: 91%

Question: Which remaining at 10 min, 0.5 µM does the source give for `O=C(O)c1cccc2cc(Cn3ccc4ccncc4c3=O)oc12` here?
Answer: 100%

Question: For `COC(=O)c1cccc2cc(CN3Cc4ccncc4C3=O)oc12`, which remaining at 10 min, 0.5 µM is on record?
Answer: 7%

Question: For `O=C(O)c1ccc2cc(CNC(=O)c3cnn4cccnc34)oc2c1`, which remaining at 10 min, 0.5 µM is on record?
Answer: 100%

Question: Which remaining at 10 min, 0.5 µM does the source give for `O=C(O)c1ccc2oc(CNC(=O)c3cnn4cccnc34)cc2c1` here?
Answer: 100%

Question: Which remaining at 10 min, 0.5 µM does the source give for `CCn1nc(C)cc1C(=O)Nc1nc2cc(C(N)=O)cc(OC)c2n1C/C=C/Cn1c(NC(=O)c2cc(C)nn2CC)nc2cc(C(N)=O)cc(OCCCN3CCOCC3)c21` here?
Answer: 81%

Question: With `O=C(NCc1cc2cc(Cl)cc(-c3nn[nH]n3)c2o1)c1cnn2cccnc12` as the compound, how does the remaining at 10 min, 0.5 µM read?
Answer: 89%

Question: With `O=C(NCc1cc2cc(Cl)cc(C(=O)O)c2o1)c1cncc2cccnc12` as the compound, how does the remaining at 10 min, 0.5 µM read?
Answer: 64%

Question: For `O=C(NCc1cc2cc(Cl)c3oc(=O)[nH]c(=O)c3c2o1)c1cnn2cccnc12`, which remaining at 10 min, 0.5 µM is on record?
Answer: 69%

Question: Which remaining at 10 min, 0.5 µM does the source give for `C[C@H](NC(=O)c1cnn2cccnc12)c1cc2cc(Cl)cc(C(=O)O)c2o1` here?
Answer: 94%

Question: Which remaining at 10 min, 0.5 µM does the source give for `O=C(O)c1cc(Cl)cc2cc(CNC(=O)c3cnn4cccnc34)oc12` here?
Answer: 100%

Question: For `O=C(O)c1cccc2c(Cl)c(CNC(=O)c3cnn4cccnc34)oc12`, which remaining at 10 min, 0.5 µM is on record?
Answer: 91%

Question: For `Cn1c(CNC(=O)c2cnn3cccnc23)nc2c(C(=O)O)cccc21`, which remaining at 10 min, 0.5 µM is on record?
Answer: 89%

Assay: in vitro
Conditions: human, liver microsomes

Question: Which remaining at 10 min, 0.5 µM does the source give for `O=C(O)c1c(O)c(Cl)cc2cc(CNC(=O)c3cnn4cccnc34)oc12` here?
Answer: 98%

Question: With `Cc1ccc2c(=O)c3cccc(CC(=O)O)c3oc2c1C` [VADIMEZAN] as the compound, how does the remaining at 10 min, 0.5 µM read?
Answer: 100%

Question: For `O=C(O)c1cccc2cc(CNC(=O)c3cnn4cccnc34)oc12`, which remaining at 10 min, 0.5 µM is on record?
Answer: 94%

Question: Which remaining at 10 min, 0.5 µM does the source give for `O=C(O)c1c(F)ccc2cc(CNC(=O)c3cnn4cccnc34)oc12` here?
Answer: 98%

Question: With `O=C(O)c1cccc2cc(Cn3ccc4ccncc4c3=O)oc12` as the compound, how does the remaining at 10 min, 0.5 µM read?
Answer: 98%

Question: Which remaining at 10 min, 0.5 µM does the source give for `COC(=O)c1cccc2cc(CN3Cc4ccncc4C3=O)oc12` here?
Answer: 0%

Question: With `O=C(O)c1ccc2cc(CNC(=O)c3cnn4cccnc34)oc2c1` as the compound, how does the remaining at 10 min, 0.5 µM read?
Answer: 100%

Question: Which remaining at 10 min, 0.5 µM does the source give for `O=C(O)c1ccc2oc(CNC(=O)c3cnn4cccnc34)cc2c1` here?
Answer: 100%

Question: For `CCn1nc(C)cc1C(=O)Nc1nc2cc(C(N)=O)cc(OC)c2n1C/C=C/Cn1c(NC(=O)c2cc(C)nn2CC)nc2cc(C(N)=O)cc(OCCCN3CCOCC3)c21`, which remaining at 10 min, 0.5 µM is on record?
Answer: 22%

Question: With `O=C(NCc1cc2cc(Cl)cc(-c3nn[nH]n3)c2o1)c1cnn2cccnc12` as the compound, how does the remaining at 10 min, 0.5 µM read?
Answer: 96%

Question: Which remaining at 10 min, 0.5 µM does the source give for `O=C(NCc1cc2cc(Cl)cc(C(=O)O)c2o1)c1cncc2cccnc12` here?
Answer: 92%

Question: For `O=C(NCc1cc2cc(Cl)c3oc(=O)[nH]c(=O)c3c2o1)c1cnn2cccnc12`, which remaining at 10 min, 0.5 µM is on record?
Answer: 54%

Question: With `C[C@H](NC(=O)c1cnn2cccnc12)c1cc2cc(Cl)cc(C(=O)O)c2o1` as the compound, how does the remaining at 10 min, 0.5 µM read?
Answer: 100%

Question: Which remaining at 10 min, 0.5 µM does the source give for `O=C(O)c1cc(Cl)cc2cc(CNC(=O)c3cnn4cccnc34)oc12` here?
Answer: 100%

Question: For `O=C(O)c1cccc2c(Cl)c(CNC(=O)c3cnn4cccnc34)oc12`, which remaining at 10 min, 0.5 µM is on record?
Answer: 99%

Question: With `Cn1c(CNC(=O)c2cnn3cccnc23)nc2c(C(=O)O)cccc21` as the compound, how does the remaining at 10 min, 0.5 µM read?
Answer: 95%

Assay: in vitro
Conditions: mouse, liver microsomes

Question: For `O=C(O)c1c(O)c(Cl)cc2cc(CNC(=O)c3cnn4cccnc34)oc12`, which remaining at 10 min, 0.5 µM is on record?
Answer: 93%

Question: For `Cc1ccc2c(=O)c3cccc(CC(=O)O)c3oc2c1C` [VADIMEZAN], which remaining at 10 min, 0.5 µM is on record?
Answer: 89%

Question: Which remaining at 10 min, 0.5 µM does the source give for `O=C(O)c1cccc2cc(CNC(=O)c3cnn4cccnc34)oc12` here?
Answer: 97%

Question: Which remaining at 10 min, 0.5 µM does the source give for `O=C(O)c1c(F)ccc2cc(CNC(=O)c3cnn4cccnc34)oc12` here?
Answer: 92%

Question: With `O=C(O)c1cccc2cc(Cn3ccc4ccncc4c3=O)oc12` as the compound, how does the remaining at 10 min, 0.5 µM read?
Answer: 96%

Question: For `COC(=O)c1cccc2cc(CN3Cc4ccncc4C3=O)oc12`, which remaining at 10 min, 0.5 µM is on record?
Answer: 11%

Question: Which remaining at 10 min, 0.5 µM does the source give for `O=C(O)c1ccc2cc(CNC(=O)c3cnn4cccnc34)oc2c1` here?
Answer: 100%

Question: Which remaining at 10 min, 0.5 µM does the source give for `O=C(O)c1ccc2oc(CNC(=O)c3cnn4cccnc34)cc2c1` here?
Answer: 88%

Question: With `CCn1nc(C)cc1C(=O)Nc1nc2cc(C(N)=O)cc(OC)c2n1C/C=C/Cn1c(NC(=O)c2cc(C)nn2CC)nc2cc(C(N)=O)cc(OCCCN3CCOCC3)c21` as the compound, how does the remaining at 10 min, 0.5 µM read?
Answer: > 100%

Question: For `O=C(NCc1cc2cc(Cl)cc(-c3nn[nH]n3)c2o1)c1cnn2cccnc12`, which remaining at 10 min, 0.5 µM is on record?
Answer: 80%

Question: For `O=C(NCc1cc2cc(Cl)cc(C(=O)O)c2o1)c1cncc2cccnc12`, which remaining at 10 min, 0.5 µM is on record?
Answer: 65%

Question: For `O=C(NCc1cc2cc(Cl)c3oc(=O)[nH]c(=O)c3c2o1)c1cnn2cccnc12`, which remaining at 10 min, 0.5 µM is on record?
Answer: 57%

Question: Which remaining at 10 min, 0.5 µM does the source give for `C[C@H](NC(=O)c1cnn2cccnc12)c1cc2cc(Cl)cc(C(=O)O)c2o1` here?
Answer: 100%

Question: Which remaining at 10 min, 0.5 µM does the source give for `O=C(O)c1cc(Cl)cc2cc(CNC(=O)c3cnn4cccnc34)oc12` here?
Answer: 100%

Question: With `O=C(O)c1cccc2c(Cl)c(CNC(=O)c3cnn4cccnc34)oc12` as the compound, how does the remaining at 10 min, 0.5 µM read?
Answer: 85%

Question: With `Cn1c(CNC(=O)c2cnn3cccnc23)nc2c(C(=O)O)cccc21` as the compound, how does the remaining at 10 min, 0.5 µM read?
Answer: 85%
